Source: PubChem BioAssay (NCI)
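Compound exposure: 48 hours, 5 concentrations, 96-well plates. Abbreviation: GI50, concentration required for 50% inhibition of growth. At the TGI there is no net growth.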

How the values were obtained:
Test in all cases: NCI tumour cell line growth inhibition, 48 h
HCT-15 colon = system: HCT-15 colon
MALME-3M melanoma = system: MALME-3M melanoma
MOLT-4 leukemia = system: MOLT-4 leukemia
RPMI-8226 leukemia = system: RPMI-8226 leukemia
SK-MEL-2 melanoma = system: SK-MEL-2 melanoma
SK-MEL-28 melanoma = system: SK-MEL-28 melanoma
SR leukemia = system: SR leukemia
UACC-62 melanoma = system: UACC-62 melanoma
PC-3 prostate = system: PC-3 prostate
DU-145 prostate = system: DU-145 prostate

CSc1nnc2n1-c1ccccc1SCC2
TGI (HCT-15 colon): > 100 µM | TGI (MALME-3M melanoma): > 100 µM | TGI (MOLT-4 leukemia): > 100 µM | TGI (RPMI-8226 leukemia): > 100 µM | TGI (SK-MEL-2 melanoma): > 100 µM | TGI (SK-MEL-28 melanoma): > 100 µM | TGI (SR leukemia): > 100 µM | TGI (UACC-62 melanoma): > 100 µM

O=C(O)c1cccc(F)c1C(=O)c1ccc2ccccc2c1
TGI (HCT-15 colon): > 100 µM | TGI (MALME-3M melanoma): > 100 µM | TGI (PC-3 prostate): > 100 µM | TGI (RPMI-8226 leukemia): > 100 µM | TGI (SK-MEL-2 melanoma): > 100 µM | TGI (SK-MEL-28 melanoma): > 100 µM | TGI (UACC-62 melanoma): > 100 µM

C=C1[C@@H]2CCC(C)(C)[C@H]1CCC(=O)[C@@H]2C(=O)OC
TGI (HCT-15 colon): > 100 µM | TGI (MALME-3M melanoma): > 100 µM | TGI (MOLT-4 leukemia): > 100 µM | TGI (RPMI-8226 leukemia): > 100 µM | TGI (SK-MEL-2 melanoma): > 100 µM | TGI (SK-MEL-28 melanoma): > 100 µM | TGI (SR leukemia): > 100 µM | TGI (UACC-62 melanoma): > 100 µM

COc1ccc2c(C(=O)NCCCCCC(=O)O)cc3cc4c(cc3c2c1)OCO4
GI50 (DU-145 prostate): > 100 µM | TGI (DU-145 prostate): > 100 µM | GI50 (HCT-15 colon): > 100 µM | TGI (HCT-15 colon): > 100 µM | GI50 (MALME-3M melanoma): > 100 µM | TGI (MALME-3M melanoma): > 100 µM | GI50 (MOLT-4 leukemia): > 100 µM | TGI (MOLT-4 leukemia): > 100 µM | GI50 (PC-3 prostate): > 100 µM | TGI (PC-3 prostate): > 100 µM | GI50 (RPMI-8226 leukemia): > 100 µM | TGI (RPMI-8226 leukemia): > 100 µM | GI50 (SK-MEL-28 melanoma): > 100 µM | TGI (SK-MEL-28 melanoma): > 100 µM | GI50 (UACC-62 melanoma): 83 µM | TGI (UACC-62 melanoma): > 100 µM

CCOC(=O)/C(C#N)=C/c1[nH]c(C)c(C)c1C
TGI (HCT-15 colon): > 100 µM | TGI (MALME-3M melanoma): > 100 µM | TGI (MOLT-4 leukemia): > 100 µM | TGI (RPMI-8226 leukemia): > 100 µM | TGI (SK-MEL-2 melanoma): > 100 µM | TGI (UACC-62 melanoma): > 100 µM

COc1cc(Nc2nccc(-c3cnn4ncccc34)n2)cc(OC)c1
GI50 (DU-145 prostate): 0.0724 µM | TGI (DU-145 prostate): 2.82 µM | GI50 (HCT-15 colon): 0.0889 µM | TGI (HCT-15 colon): > 5.17 µM | GI50 (MALME-3M melanoma): 0.132 µM | TGI (MALME-3M melanoma): 1.26 µM | GI50 (MOLT-4 leukemia): 0.0516 µM | TGI (MOLT-4 leukemia): 0.165 µM | GI50 (PC-3 prostate): 0.0843 µM | TGI (PC-3 prostate): 2.74 µM | GI50 (RPMI-8226 leukemia): 0.0862 µM | TGI (RPMI-8226 leukemia): 0.388 µM | GI50 (SK-MEL-28 melanoma): 0.0726 µM | TGI (SK-MEL-28 melanoma): 0.38 µM | GI50 (UACC-62 melanoma): 0.0532 µM | TGI (UACC-62 melanoma): 0.223 µM

NCCCSCC(=O)O
TGI (HCT-15 colon): > 100 µM | TGI (MALME-3M melanoma): > 100 µM | TGI (MOLT-4 leukemia): > 100 µM | TGI (RPMI-8226 leukemia): > 100 µM | TGI (SK-MEL-2 melanoma): > 100 µM | TGI (SK-MEL-28 melanoma): > 100 µM | TGI (UACC-62 melanoma): > 100 µM

Cc1cccc(C)c1NC(=O)/C(CC(=O)CC(c1ccccc1)c1c(O)c2ccccc2oc1=O)=N/O (stereo not given)
TGI (DU-145 prostate): > 100 µM | TGI (HCT-15 colon): > 100 µM | TGI (MOLT-4 leukemia): > 100 µM | TGI (PC-3 prostate): > 100 µM | TGI (SK-MEL-2 melanoma): > 100 µM | TGI (SK-MEL-28 melanoma): > 100 µM | TGI (UACC-62 melanoma): > 100 µM

C[C@]12CC[C@H](O)CC1CCC[C@@H]2O (stereo not given in full)
TGI (HCT-15 colon): > 100 µM | TGI (MALME-3M melanoma): > 100 µM | TGI (MOLT-4 leukemia): > 100 µM | TGI (RPMI-8226 leukemia): > 100 µM | TGI (SK-MEL-2 melanoma): > 100 µM | TGI (SK-MEL-28 melanoma): > 100 µM | TGI (UACC-62 melanoma): > 100 µM

CCCCCCCCCCCC(=O)[O][Sn]([CH2]CCC)([CH2]CCC)[CH2]CCC
GI50 (DU-145 prostate): 0.0544 µM | TGI (DU-145 prostate): 0.17 µM | GI50 (HCT-15 colon): 0.0456 µM | TGI (HCT-15 colon): 0.168 µM | GI50 (MALME-3M melanoma): 0.0211 µM | TGI (MALME-3M melanoma): 0.0772 µM | GI50 (MOLT-4 leukemia): 0.0436 µM | TGI (MOLT-4 leukemia): 0.732 µM | GI50 (PC-3 prostate): 0.049 µM | TGI (PC-3 prostate): 0.162 µM | GI50 (RPMI-8226 leukemia): 0.0228 µM | TGI (RPMI-8226 leukemia): 0.098 µM | GI50 (SK-MEL-2 melanoma): 0.0555 µM | TGI (SK-MEL-2 melanoma): 0.13 µM | GI50 (SK-MEL-28 melanoma): 0.0649 µM | TGI (SK-MEL-28 melanoma): 0.179 µM | GI50 (UACC-62 melanoma): 0.0515 µM | TGI (UACC-62 melanoma): 0.11 µM

COc1cccc(/C=N/[N-]C(N)=O)c1[O-].[Cu+2].c1ccncc1
TGI (HCT-15 colon): > 100 µM | TGI (MALME-3M melanoma): 28.3 µM | TGI (MOLT-4 leukemia): 69.3 µM | TGI (RPMI-8226 leukemia): 67.1 µM | TGI (SK-MEL-2 melanoma): 58.5 µM | TGI (SK-MEL-28 melanoma): 33.9 µM | TGI (UACC-62 melanoma): 41.1 µM

CC1(C)OC(=O)C(c2ccsc2)C(=O)O1
TGI (HCT-15 colon): > 100 µM | TGI (MALME-3M melanoma): > 100 µM | TGI (MOLT-4 leukemia): > 100 µM | TGI (RPMI-8226 leukemia): > 100 µM | TGI (SK-MEL-2 melanoma): > 100 µM | TGI (SK-MEL-28 melanoma): > 100 µM | TGI (SR leukemia): > 100 µM | TGI (UACC-62 melanoma): > 100 µM

O=c1cc(/C=C/c2ccccc2)c2ccc(O/C(=C\c3ccccc3)c3nc4ccccc4c(=O)o3)cc2o1
TGI (HCT-15 colon): > 100 µM | TGI (MALME-3M melanoma): > 100 µM | TGI (MOLT-4 leukemia): 74.3 µM | TGI (RPMI-8226 leukemia): 60.3 µM | TGI (SK-MEL-2 melanoma): 77.7 µM | TGI (SK-MEL-28 melanoma): 34.5 µM | TGI (UACC-62 melanoma): > 100 µM

Cn1c(=O)ccc2cc(C(=O)c3ccccc3)ccc21
TGI (HCT-15 colon): > 100 µM | TGI (MALME-3M melanoma): > 100 µM | TGI (MOLT-4 leukemia): > 100 µM | TGI (RPMI-8226 leukemia): > 100 µM | TGI (SK-MEL-2 melanoma): > 100 µM | TGI (SK-MEL-28 melanoma): > 100 µM | TGI (UACC-62 melanoma): 50.5 µM

COc1ccc(/C=C/c2cnnc3ccccc23)cc1OC
TGI (DU-145 prostate): > 10 µM | TGI (HCT-15 colon): > 10 µM | TGI (MALME-3M melanoma): > 10 µM | TGI (MOLT-4 leukemia): > 10 µM | TGI (PC-3 prostate): > 10 µM | TGI (RPMI-8226 leukemia): > 10 µM | TGI (SK-MEL-2 melanoma): > 10 µM | TGI (SK-MEL-28 melanoma): > 10 µM | TGI (UACC-62 melanoma): > 10 µM

CCCCCCCCCCCCCCCc1nc(SCC(=O)O)n[nH]1
TGI (HCT-15 colon): > 100 µM | TGI (MALME-3M melanoma): > 100 µM | TGI (MOLT-4 leukemia): > 100 µM | TGI (RPMI-8226 leukemia): > 100 µM | TGI (SK-MEL-2 melanoma): > 100 µM | TGI (SK-MEL-28 melanoma): > 100 µM | TGI (SR leukemia): > 100 µM | TGI (UACC-62 melanoma): > 100 µM

COc1ccc2c(c1)[n+](=O)c(C(=O)C/C(=N\NC(=O)C[N+](C)(C)C)C(=O)Nc1cc(Cl)ccc1Cl)c(C)n2O
TGI (HCT-15 colon): > 100 µM | TGI (MALME-3M melanoma): > 100 µM | TGI (MOLT-4 leukemia): > 100 µM | TGI (RPMI-8226 leukemia): > 100 µM | TGI (SK-MEL-2 melanoma): > 100 µM | TGI (SK-MEL-28 melanoma): > 100 µM | TGI (SR leukemia): > 100 µM | TGI (UACC-62 melanoma): > 100 µM

COc1cc2c(cc1OC)-c1c(c3ccc([N+](=O)[O-])cc3c(=O)n1CCCBr)C2=O
GI50 (DU-145 prostate): 24.5 µM | TGI (DU-145 prostate): > 100 µM | GI50 (HCT-15 colon): 61.8 µM | TGI (HCT-15 colon): > 100 µM | GI50 (MALME-3M melanoma): 9.72 µM | TGI (MALME-3M melanoma): 81.1 µM | GI50 (MOLT-4 leukemia): 0.461 µM | TGI (MOLT-4 leukemia): > 100 µM | GI50 (PC-3 prostate): 59 µM | TGI (PC-3 prostate): > 100 µM | GI50 (RPMI-8226 leukemia): 3.33 µM | TGI (RPMI-8226 leukemia): > 100 µM | GI50 (SK-MEL-2 melanoma): > 100 µM | TGI (SK-MEL-2 melanoma): > 100 µM | GI50 (SK-MEL-28 melanoma): > 100 µM | TGI (SK-MEL-28 melanoma): > 100 µM | GI50 (UACC-62 melanoma): 2.83 µM | TGI (UACC-62 melanoma): 75.4 µM

CN1CCN(C(=S)N(C(=O)c2ccc(Cl)cc2)C2CCCCC2)CC1
TGI (DU-145 prostate): > 100 µM | TGI (HCT-15 colon): > 100 µM | TGI (MALME-3M melanoma): > 100 µM | TGI (MOLT-4 leukemia): > 100 µM | TGI (RPMI-8226 leukemia): > 100 µM | TGI (SK-MEL-2 melanoma): > 100 µM | TGI (SK-MEL-28 melanoma): > 100 µM | TGI (SR leukemia): > 100 µM | TGI (UACC-62 melanoma): > 100 µM

O=C1OC(=O)C2C1C1(c3ccccc3)OC2(c2ccccc2)c2c(Br)c(Br)c(Br)c(Br)c21 (stereo not given)
TGI (HCT-15 colon): > 100 µM | TGI (MALME-3M melanoma): > 100 µM | TGI (MOLT-4 leukemia): > 100 µM | TGI (RPMI-8226 leukemia): > 100 µM | TGI (SK-MEL-2 melanoma): > 100 µM | TGI (UACC-62 melanoma): > 100 µM

Cn1c(=O)c2nc3sc4ccccc4c(=N)n3c2n(C)c1=O
TGI (MALME-3M melanoma): > 100 µM | TGI (MOLT-4 leukemia): > 100 µM | TGI (SK-MEL-2 melanoma): > 100 µM | TGI (SK-MEL-28 melanoma): > 100 µM | TGI (SR leukemia): > 100 µM | TGI (UACC-62 melanoma): > 100 µM

Fc1cccc(C2SCc3nc4ccccc4n32)c1 (stereo not given)
TGI (MALME-3M melanoma): > 100 µM | TGI (MOLT-4 leukemia): > 100 µM | TGI (RPMI-8226 leukemia): > 100 µM | TGI (SK-MEL-2 melanoma): > 100 µM | TGI (SK-MEL-28 melanoma): > 10 µM | TGI (SR leukemia): > 100 µM | TGI (UACC-62 melanoma): > 100 µM
